Test results: PubChem BioAssay (NCI)
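Five compound concentrations were applied to cells in 96-well plates for 48 hours; endpoints were derived by simple linear interpolation of the resulting dose-response curve. GI50: concentration for 50% inhibition of growth. TGI marks complete inhibition of growth.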

What was measured:
Assay in all cases: NCI-60 cell line screen, 48 h
HOP-62 NSCLC = test system: HOP-62 NSCLC
ACHN renal = test system: ACHN renal
786-0 renal = test system: 786-0 renal
IGROV1 ovarian = test system: IGROV1 ovarian
K-562 leukemia = test system: K-562 leukemia
RXF 393 renal = test system: RXF 393 renal
MDA-MB-231 breast = test system: MDA-MB-231 breast
SK-MEL-2 melanoma = test system: SK-MEL-2 melanoma
OVCAR-4 ovarian = test system: OVCAR-4 ovarian
SR leukemia = test system: SR leukemia

Structure (SMILES) | GI50 (HOP-62 NSCLC) [µM] | TGI (HOP-62 NSCLC) [µM] | GI50 (ACHN renal) [µM] | TGI (ACHN renal) [µM] | GI50 (786-0 renal) [µM] | TGI (786-0 renal) [µM] | GI50 (IGROV1 ovarian) [µM] | TGI (IGROV1 ovarian) [µM] | GI50 (K-562 leukemia) [µM] | TGI (K-562 leukemia) [µM] | GI50 (RXF 393 renal) [µM] | TGI (RXF 393 renal) [µM] | GI50 (MDA-MB-231 breast) [µM] | TGI (MDA-MB-231 breast) [µM] | GI50 (SK-MEL-2 melanoma) [µM] | TGI (SK-MEL-2 melanoma) [µM] | GI50 (OVCAR-4 ovarian) [µM] | TGI (OVCAR-4 ovarian) [µM] | GI50 (SR leukemia) [nM] | TGI (SR leukemia) [µM]
CN1C(=O)CNC(=O)[C@H](NC(=O)c2nc3ccccc3cc2O)CSSC[C@H]1C(=O)NCCc1nc2ccccc2cc1O | 17.6 | 53.4 | 15.3 | 38.7 | 22.1 | 49 | 32 | > 100 | 1.57 | 13.9 | 13.9 | 36 | 5.42 | 27.7 | 2.57 | 8.47 | 25 | > 73.1 | 387 | 1.96
CC(C)(C)c1ccc([I+]c2ccc(C(C)(C)C)cc2)cc1 | 1.83 | 3.71 | 3.25 | 12.2 | 1.69 | 3.77 | 2.33 | 12.2 | 0.55 | 2.46 | 1.99 | 5.52 | 1.35 | 2.83 | 1.51 | 3.86 | 0.658 | 11 | 935 | 3.15
CC(=O)/C=C/C1=C(c2cc3ccccc3s2)c2ccccc2CC1 | 36.5 | > 100 | 19.4 | 45.5 | 33.2 | > 100 | 27.4 | > 100 | 15.2 | > 100 | 24.9 | 57.2 | 26.2 | 88.2 | 20 | 42.2 | 25.9 | > 100 | 8590 | > 100
O=C(Nc1ccc(Br)cc1)Nc1n[nH]c2ccccc12 | > 100 | > 100 | 23.3 | > 100 | > 100 | > 100 | 17.5 | > 100 | 59.1 | > 100 | > 62.8 | > 100 | > 50.3 | > 100 | > 100 | > 100 | 56.7 | > 100 | 4780 | > 100
O=Cc1ccc(-c2ccc(-c3ccc(C=O)s3)o2)s1 | – | > 100 | – | > 100 | – | > 100 | – | 35.8 | – | > 100 | – | 2.65 | – | > 100 | – | > 100 | – | > 100 | – | > 100
O=C(Nc1cc(C(F)(F)F)ccc1F)Nc1n[nH]c2ccccc12 | > 100 | > 100 | > 100 | > 100 | > 100 | > 100 | 0.758 | > 100 | > 100 | > 100 | > 100 | > 100 | > 100 | > 100 | > 100 | > 100 | > 100 | > 100 | 55400 | > 100
COc1cc(OC)c2c(=O)c(O)c(-c3ccc(OC)c(OC)c3)oc2c1 | – | 19.2 | – | > 100 | – | > 100 | – | > 31.6 | – | > 100 | – | 56.6 | – | > 100 | – | – | – | 2.31 | – | 19.2
CC(ONC(=O)c1cc(C(F)(F)F)cc(C(F)(F)F)c1)C(=O)Nc1ccc(Cl)cc1 (stereo not drawn) | 8.45 | 24.6 | 4.55 | 50.6 | 5.61 | 22 | 8.86 | > 52 | 5.75 | > 45.5 | 5.95 | 35.6 | 8.7 | 36.5 | 3.65 | 15.2 | 4.64 | > 100 | – | 1.16
Cn1c(=O)cc2c3c(c(NCCCO)ccc31)C(=O)c1ccccc1-2 | 19.2 | > 100 | 1.21 | > 100 | 1.53 | > 100 | 4.98 | > 100 | 2.09 | 64.3 | 8.64 | > 100 | 4.77 | > 100 | 6.85 | > 100 | 7.89 | > 100 | 694 | 13.4
COc1ccc(C(O)CNC(=O)c2ccccc2)cc1 (stereo not drawn) | – | > 100 | – | > 100 | – | > 100 | – | > 100 | – | > 100 | – | > 100 | – | > 100 | – | > 100 | – | > 100 | – | > 100
